Results as given in patent US8299056B2 (Signal Pharmaceuticals, LLC, priority 2008, dated 2012).
Where two headings read alike, the source gives them in different places.

Molecular target: T1, Syk (Homo sapiens, UniProt P43405)
T1 construct: purchased Carna Biosciences
Assay: Syk HTRF assay
Assay type: biochemical
Outline: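 HTRF kinase assay in HEPES pH 7.6 buffer with MgCl2, DTT and Triton X100; start mix of 87.5 μM ATP and 80 nM biotinylated peptide, 1 h at room temperature. EDTA stop, then Eu-anti-phosphotyrosine/streptavidin-DyLight 647 detection, read as 665/615 nm emission ratio.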

[1] = activity levels A-D, read-out: Activity Level (IC50 in the Syk HTRF assay)
[2] = read-out: Activity Level (Syk HTRF assay IC50)
[3] = IC50 activity level, read-out: Activity Level

IC50 [1] | IC50 [2] | Structure (SMILES) | further results
0.005 to 250 nM | – | O[C@H]1CC[C@@H](Nc2cccc3nc(Nc4ccc5[nH]nnc5c4)nn23)CC1 [Example 237, cis-4-(2-(1H-benzo[d][1,2,3]triazolo-5-ylamino)-[1,2,4]triazolo[1,5-a]pyridin-5-ylamino)cyclohexanol] | –
250 to 500 nM | – | Cc1n[nH]c2cc(Nc3nc4cccc(NCC5CCOCC5)n4n3)ccc12 [Example 220, N^2-(3-methyl-1H-indazol-6-yl)-N^5-((tetrahydro-2H-pyran-4-yl)methyl)-[1,2,4]triazolo[1,5-a]pyridin-2,5-diamine] | –
1000 to 10000 nM | – | CNC(=O)c1ccc(Nc2nc3cccc(-n4ccnc4)n3n2)cc1 [Example 241, 4-(5-(1H-imidazol-1-yl)-[1,2,4]triazolo[1,5-a]pyridin-2-ylamino)-N-methylbenzamide] | –
– | 0.005 to 250 nM | CN1CCC(NC(=O)c2ccc(Nc3nc4cccc(-c5cccc(O)c5)n4n3)cc2)CC1 [compound 34, 4-(5-(3-hydroxyphenyl)-[1,2,4]triazolo[1,5-a]pyridin-2-ylamino)-N-(1-methylpiperidin-4-yl)benzamide] | –
0.005 to 250 nM | – | COCCOc1cc(Nc2nc3cccc(N[C@H]4CC[C@@H](O)CC4)n3n2)ccc1F [Example 210, cis-4-(2-(4-fluoro-3-(2-methoxyethoxy)phenylamino)-[1,2,4]triazolo[1,5-a]pyridin-5-ylamino)cyclohexanol] | –
0.005 to 250 nM | – | Cc1n[nH]c2cc(Nc3nc4cccc(N[C@H]5CC[C@H](O)CC5)n4n3)ccc12 (stereo in doubt) [Example 201, trans-4-(2-(3-methyl-1H-indazol-6-ylamino)-[1,2,4]triazolo[1,5-a]pyridin-5-ylamino)cyclohexanol] | –
500 to 1000 nM | – | CNC(=O)c1ccc(Nc2nc3cccc(CCC4CCNCC4)n3n2)cc1 [Example 254, N-methyl-4-(5-(2-(piperidin-4-yl)ethyl)-[1,2,4]triazolo[1,5-a]pyridin-2-ylamino)benzamide] | –
– | 0.005 to 250 nM | CN1C(=O)Cc2ccc(Nc3nc4cccc(N[C@H]5CC[C@@H](O)CC5)n4n3)cc21 [Example 192, cis-6-(5-(4-hydroxycyclohexylamino)-[1,2,4]triazolo[1,5-a]pyridin-2-ylamino)-1-methylindolin-2-one] | –
– | – | c1ccc(Nc2nc3cccc(N[C@H]4CCNC4)n3n2)cc1 [Example 475, (S)-N^2-phenyl-N^5-(pyrrolidin-3-yl)-[1,2,4]triazolo[1,5-a]pyridin-2,5-diamine] | IC50 [3]: 250 to 500 nM
– | 250 to 500 nM | COCCn1nc(C)c2ccc(Nc3nc4cccc(N[C@H]5CC[C@@H](O)CC5)n4n3)cc21 [Example 194, cis-4-(2-(1-(2-methoxyethyl)-3-methyl-1H-indazol-6-ylamino)-[1,2,4]triazolo[1,5-a]pyridin-5-ylamino)cyclohexanol] | –
– | – | Cn1c(=O)[nH]c2cc(Nc3nc4cccc(NC5CCOCC5)n4n3)ccc21 [Example 569, 1-methyl-5-(5-(tetrahydro-2H-pyran-4-ylamino)-[1,2,4-]triazolo[1,5-a]pyridin-2-ylamino)-1H-benzo[d]imidazol-2(3H)-one] | IC50 [3]: 0.005 to 250 nM
– | – | Cc1nnc2cc(Nc3nc4cccc(NC5CCOCC5)n4n3)ccn12 [Example 534, N^2-(3-methyl-[1,2,4]triazolo[4,3-a]pyridin-7-yl)-N^5-(tetrahydro-2H-pyran-4-yl)-[1,2,4]triazolo[1,5-a]pyridine-2,5-diamine] | IC50 [3]: 1000 to 10000 nM
– | – | Cc1n[nH]c2cc(Nc3nc4cccc(C(F)(F)C5CCOCC5)n4n3)ccc12 [Example 562, 5-(difluoro(tetrahydro-2H-pyran-4-yl)methyl)-N-(3-methyl-1H-indazol-6-yl)-[1,2,4]triazolo[1,5-a]pyridin-2-amine] | IC50 [3]: 0.005 to 250 nM
0.005 to 250 nM | – | Cc1n[nH]c2cc(Nc3nc4cccc(N5CC(O)C5)n4n3)ccc12 [Example 215, 1-(2-(3-methyl-1H-indazol-6-ylamino)-[1,2,4]triazolo[1,5-a]pyridin-5-yl)azetidin-3-ol] | –
– | – | CC(C)C(=O)Nc1cccc2nc(Nc3ccccc3)nn12 [Example 526, N-(2-(phenylamino)-[1,2,4]triazolo[1,5-a]pyridin-5-yl)isobutyramide] | IC50 [3]: 1000 to 10000 nM
– | – | Cn1ncc2ccc(Nc3nc4cccc(N[C@H]5CCCNC5)n4n3)cc21 [Example 466, (S)-N^2-(1-methyl-1H-indazol-6-yl)-N^5-(piperidin-3-yl)-[1,2,4]triazolo[1,5-a]pyridine-2,5-diamine] | IC50 [3]: 0.005 to 250 nM
1000 to 10000 nM | – | OC[C@H]1CCCC[C@H]1Nc1cccc2nc(Nc3ccc(C(F)(F)F)cc3)nn12 (stereo in doubt) [Example 356, (1S,2R)-(2-(2-(4-(trifluoromethyl)phenylamino)-[1,2,4]triazolo[1,5-a]pyridin-5-ylamino)cyclohexyl)methanol] | –
0.005 to 250 nM | – | Cn1ncc2cc(Nc3nc4cccc(N[C@H]5CC[C@@H](O)CC5)n4n3)ccc21 [Example 236, cis-4-(2-(1-methyl-1H-indazol-5-ylamino)-[1,2,4]triazolo[1,5-a]pyridin-5-ylamino)cyclohexanol] | –
0.005 to 250 nM | – | Cc1n[nH]c2cc(Nc3nc4cccc(N[C@H]5CCCC5O)n4n3)ccc12 (stereo in doubt) [Example 212, (1S,2S)-2-(2-(3-methyl-1H-indazol-6-ylamino)-[1,2,4]triazolo[1,5-a]pyridin-5-ylamino)cyclopentanol] | –

IC50 [1] | IC50 [2] | Structure (SMILES) | further results
– | – | c1ccc(Nc2nc3cccc(NC4CCOCC4)n3n2)cc1 [Example 438, N^2-phenyl-N^5-(tetrahydro-2H-pyran-4-yl)-[1,2,4]triazolo[1,5-a]pyridine-2,5-diamine] | IC50 [3]: 1000 to 10000 nM
– | 250 to 500 nM | CC(=O)Nc1ccc(-c2cccc3nc(Nc4ccccc4)nn23)cc1 [compound 79, N-(4-(2-(phenylamino)-[1,2,4]triazolo[1,5-a]pyridin-5-yl)phenyl)acetamide] | –
0.005 to 250 nM | – | OCC1CN(c2cccc3nc(Nc4ccc(C(F)(F)F)cc4)nn23)C1 [Example 259, (1-(2-(4-(trifluoromethyl)phenylamino)-[1,2,4]triazolo[1,5-a]pyridin-5-yl)azetidin-3-yl)methanol] | –
– | 0.005 to 250 nM | CN(C)c1ccc(Nc2nc3cccc(-c4ccccc4)n3n2)cc1 [Example 94] | –
500 to 1000 nM | – | CNC(=O)c1ccc(Nc2nc3cccc(N[C@H]4CC[C@@H](O)CC4)n3n2)cc1 [Example 386, cis-4-(5-(4-hydroxycyclohexylamino)-[1,2,4]triazolo[1,5-a]pyridin-2-ylamino)-N-methylbenzamide] | –
– | 0.005 to 250 nM | CNC(=O)c1ccc(Nc2nc3cccc(-c4cc(Cl)cc(CCCN)c4)n3n2)cc1 [compound 6, 4-(5-(3-(3-aminopropyl)-5-chlorophenyl)-[1,2,4]triazolo-[1,5-a]pyridin-2-ylamino)-N-methylbenzamide] | –
– | – | OCc1nc2ccc(-c3cccc4nc(Nc5ccc(C(F)(F)F)cc5)nn34)cc2[nH]1 [Example 409, (6-(2-(4-(trifluoromethyl)phenylamino)-[1,2,4]triazolo[1,5-a]pyridin-5-yl)-1H-benzo[d]imidazol-2-yl)methanol] | IC50 [3]: 0.005 to 250 nM
– | 0.005 to 250 nM | Cc1n[nH]c2cc(Nc3nc4cccc(NC5COCC5O)n4n3)ccc12 (racemic) [Example 166, (±)-trans-4-(2-(3-methyl-1H-indazol-6-ylamino)-[1,2,4]-triazolo[1,5-a]pyridin-5-ylamino)tetrahydrofuran-3-ol] | –
– | – | O=C1NCc2cc(-c3cccc4nc(Nc5ccccc5)nn34)ccc21 [Example 496, 5-(2-(phenylamino)-[1,2,4]triazolo[1,5-a]pyridin-5-yl)isoindolin-1-one] | IC50 [3]: 250 to 500 nM
0.005 to 250 nM | – | O=C1CN(Cc2cccc3nc(Nc4ccc(C(F)(F)F)cc4)nn23)CC(=O)N1 [Example 264, 4-((2-(4-(trifluoromethyl)phenylamino)-[1,2,4]triazolo[1,5-a]pyridin-5-yl)methyl)piperazine-2,6-dione] | –
– | 500 to 1000 nM | CNC(=O)c1ccc(Nc2nc3cccc(-c4cccc(O)c4)n3n2)c(OC)c1 [compound 15, 4-(5-(3-hydroxyphenyl)-[1,2,4]triazolo[1,5-a]pyridin-2-ylamino)-3-methoxy-N-methylbenzamide] | –
0.005 to 250 nM | – | CNc1cc(Nc2nc3cccc(N[C@H]4CC[C@@H](O)CC4)n3n2)ccn1 [Example 366, cis-4-(2-(2-(methylamino)pyridin-4-ylamino)-[1,2,4]triazolo[1,5-a]pyridin-5-ylamino)cyclohexanol] | –
– | – | NC(=O)c1ccc(Nc2nc3cccc(N[C@H]4CC[C@@H](N)CC4)n3n2)cc1 [Example 493, cis-4-(5-(4-aminocyclohexylamino)-[1,2,4]triazolo[1,5-a]pyridin-2-ylamino)benzamide] | IC50 [3]: 0.005 to 250 nM
– | 0.005 to 250 nM | Cc1cc(Nc2nc3cccc(CC4CCOCC4)n3n2)cc2c1C(C)(C)C(=O)N2 [compound 126] | –
– | 0.005 to 250 nM | CC(=O)N1CCc2cc(Nc3nc4cccc(-c5ccccc5)n4n3)ccc21 [compound 60, 1-(5-(5-phenyl-[1,2,4]triazolo[1,5-a]pyridin-2-ylamino)indolin-1-yl)ethanone] | –
– | 1000 to 10000 nM | NC(=O)c1ccc(Nc2nc3cccc(-c4ccccc4)n3n2)cn1 [compound 72, 5-(5-phenyl-[1,2,4]triazolo[1,5-a]pyridin-2-ylamino)picolinamide] | –
– | 250 to 500 nM | N#Cc1cccc(-c2cccc3nc(Nc4ccc(C(N)=O)cc4)nn23)c1 [compound 63, 4-(5-(3-cyanophenyl)-[1,2,4]triazolo[1,5-a]pyridin-2-ylamino)benzamide] | –
500 to 1000 nM | – | C[C@]1(O)CC[C@H](Nc2cccc3nc(Nc4ccc(C(F)(F)F)cc4)nn23)CC1 [Example 383, trans-1-methyl-4-(2-(4-(trifluoromethyl)phenylamino)-[1,2,4]triazolo[1,5-a]pyridin-5-ylamino)cyclohexanol] | –
1000 to 10000 nM | – | OCC1CCN(Cc2cccc3nc(Nc4ccc(C(F)(F)F)cc4)nn23)C1 (stereo in doubt) [Example 323, (R)-(1-((2-(4-(trifluoromethyl)phenylamino)-[1,2,4]triazolo[1,5-a]pyridin-5-yl)methyl)pyrrolidin-3-yl)methanol] | –
